How the values were obtained:
Assay type in all cases: in vivo
Kochia (Kochia scoparia) [1] = test: Test A preemergence; details: Bassia scoparia, pre-emergence, 240 h, preemergence, read-out: Plant response rating, Kochia
Method in brief: (§1)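 Visual injury scores from 0, no effect, to 100, complete control, were assigned versus untreated controls roughly 10 d after treatment in the greenhouse. Test chemicals, formulated with surfactant in a non-phytotoxic solvent, were applied to planted seeds as a preemergence soil spray or postemergence to one- to two-leaf plants 2 to 10 cm tall, in loam–sand soil.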

[2] = test system: barnyardgrass (Echinochloa crus-galli); test: Test A preemergence; details: Echinochloa crus-galli, pre-emergence, 240 h, preemergence, read-out: Plant response rating, Barnyardgrass
Method in brief: as §1

[3] = test system: giant foxtail (Setaria faberii); test: Test A preemergence; details: Setaria faberi, pre-emergence, 240 h, preemergence, read-out: Plant response rating, Foxtail, Giant
Method in brief: as §1

[4] = test system: pigweed (Amaranthus retroflexus); test: Test A preemergence; details: Amaranthus retroflexus, pre-emergence, 240 h, preemergence, read-out: Plant response rating, Pigweed
[5] = test system: ragweed (common ragweed, Ambrosia elatior); test: Test A preemergence; details: Ambrosia artemisiifolia, pre-emergence, 240 h, preemergence, read-out: Plant response rating, Ragweed
Method in brief: as §1

[6] = test system: ryegrass, Italian (Italian ryegrass, Lolium multiflorum); test: Test A preemergence; details: Lolium multiflorum, pre-emergence, 240 h, preemergence, read-out: Plant response rating, Ryegrass, Italian
Method in brief: as §1

[7] = test system: Galium (catchweed bedstraw, Galium aparine); test: Test A postemergence; details: Galium, post-emergence, 240 h, 125 g ai/ha, postemergence; visual injury after approximately 10 d; 0 to 100 scale (0 no effect, 100 complete control); read-out: Plant response rating, Galium
Method in brief: as §1

Kochia (Kochia scoparia) [8] = test: Test A postemergence; details: Bassia scoparia, post-emergence, 240 h, 125 g ai/ha, postemergence; visual injury after approximately 10 d; 0 to 100 scale (0 no effect, 100 complete control); read-out: Plant response rating, Kochia
Method in brief: as §1

[9] = test system: barnyardgrass (Echinochloa crus-galli); test: Test A postemergence; details: Echinochloa crus-galli, post-emergence, 240 h, 125 g ai/ha, postemergence; visual injury after approximately 10 d; 0 to 100 scale (0 no effect, 100 complete control); read-out: Plant response rating, Barnyardgrass
Method in brief: as §1

[10] = test system: blackgrass (Alopecurus myosuroides); test: Test A postemergence; details: Alopecurus myosuroides, post-emergence, 240 h, 125 g ai/ha, postemergence; visual injury after approximately 10 d; 0 to 100 scale (0 no effect, 100 complete control); read-out: Plant response rating, Blackgrass
Method in brief: as §1

corn (Zea mays) = test: Test A postemergence; details: Zea mays, post-emergence, 240 h, 125 g ai/ha, postemergence; visual injury after approximately 10 d; 0 to 100 scale (0 no effect, 100 complete control)
Method in brief: as §1

[11] = test system: giant foxtail (Setaria faberii); test: Test A postemergence; details: Setaria faberi, post-emergence, 240 h, 125 g ai/ha, postemergence; visual injury after approximately 10 d; 0 to 100 scale (0 no effect, 100 complete control); read-out: Plant response rating, Foxtail, Giant
Method in brief: as §1

[12] = test system: pigweed (Amaranthus retroflexus); test: Test A postemergence; details: Amaranthus retroflexus, post-emergence, 240 h, 125 g ai/ha, postemergence; visual injury after approximately 10 d; 0 to 100 scale (0 no effect, 100 complete control); read-out: Plant response rating, Pigweed
Method in brief: as §1

[13] = test system: ragweed (common ragweed, Ambrosia elatior); test: Test A postemergence; details: Ambrosia artemisiifolia, post-emergence, 240 h, 125 g ai/ha, postemergence; visual injury after approximately 10 d; 0 to 100 scale (0 no effect, 100 complete control); read-out: Plant response rating, Ragweed
Method in brief: as §1

[14] = test system: ryegrass, Italian (Italian ryegrass, Lolium multiflorum); test: Test A postemergence; details: Lolium multiflorum, post-emergence, 240 h, 125 g ai/ha, postemergence; visual injury after approximately 10 d; 0 to 100 scale (0 no effect, 100 complete control); read-out: Plant response rating, Ryegrass, Italian
Method in brief: as §1

[15] = test system: wheat (Triticum aestivum); test: Test A postemergence; details: Triticum aestivum, post-emergence, 240 h, 125 g ai/ha, postemergence; visual injury after approximately 10 d; 0 to 100 scale (0 no effect, 100 complete control); read-out: Plant response rating, Wheat
Method in brief: as §1

[16] = 125 g ai/ha, visual rating after approx. 10 d, 0 to 100 scale where 0 is no effect and 100 is complete control
[17] = 500 g ai/ha, 0 to 100 scale, 0 = no effect, 100 = complete control

O=C1NC[C@H](c2cnc(C(F)(F)F)nc2)[C@H]1C(=O)Nc1ccccc1F [Compound 741]
pest or weed control at 125 g/ha (Kochia (Kochia scoparia) [1]; [16]): 0% | pest or weed control at 500 g/ha (Kochia (Kochia scoparia) [1]; [17]): 30% | pest or weed control at 125 g/ha [2, 16]: 0% | pest or weed control at 500 g/ha [2, 17]: 0% | pest or weed control at 125 g/ha [3, 16]: 0% | pest or weed control at 500 g/ha [3, 17]: 0% | pest or weed control at 125 g/ha [4, 16]: 0% | pest or weed control at 500 g/ha [4, 17]: 40% | pest or weed control at 125 g/ha [5, 16]: 0% | pest or weed control at 500 g/ha [5, 17]: 0% | pest or weed control at 125 g/ha [6, 16]: 0% | pest or weed control at 500 g/ha [6, 17]: 0% | pest or weed control at 125 g/ha [7]: 0% | pest or weed control at 125 g/ha (Kochia (Kochia scoparia) [8]): 0% | pest or weed control at 125 g/ha [9]: 0% | pest or weed control at 125 g/ha [10]: 0% | Corn plant response rating (crop injury, 0 = no effect, 100 = complete kill) at 125 g/ha (corn (Zea mays)): 0% | pest or weed control at 125 g/ha [11]: 0% | pest or weed control at 125 g/ha [12]: 0% | pest or weed control at 125 g/ha [13]: 0% | pest or weed control at 125 g/ha [14]: 0% | plant injury at 125 g/ha [15]: 0%
